From ChEMBL document CHEMBL4665624, “Synthesis of 5-(4-(1H-phenanthro[9,10-d]imidazol-2-yl)benzylidene)thiazolidine-2,4-dione as promising DNA and serum albumin-binding agents and evaluation of antitumor activity” (Eur J Med Chem, 2019)

The compounds below were run on IGROV-1 (assay: Antitumor activity against human IGROV1 cells assessed as cell growth inhibition at 10 uM incubated for 48 hrs by sulforhodamine B assay). Conditions: read-out: GI.
Type: functional
For Oc1ccccc1-c1nc2c3ccccc3c3ccccc3c2o1, the inhibition of growth at 10 µM was 25.9%.

These compounds were tested on HCT-15 (assay: Antitumor activity against human HCT15 cells assessed as cell growth inhibition at 10 uM incubated for 48 hrs by sulforhodamine B assay). Conditions: read-out: GI.
Type: functional
In the case of Oc1ccccc1-c1nc2c3ccccc3c3ccccc3c2o1, the inhibition of growth at 10 µM is reported as under 10%.

What follows are compounds tested on HCC 2998 (assay: Antitumor activity against human HCC2998 cells assessed as cell growth inhibition at 10 uM incubated for 48 hrs by sulforhodamine B assay). Conditions: read-out: GI.
Type: functional
In the case of Oc1ccccc1-c1nc2c3ccccc3c3ccccc3c2o1, the inhibition of growth at 10 µM is reported as under 10%.

Each compound was assayed on NCI-H23 (assay: Antitumor activity against human NCI-H23 cells assessed as cell growth inhibition at 10 uM incubated for 48 hrs by sulforhodamine B assay). Conditions: read-out: GI.
Type: functional
Oc1ccccc1-c1nc2c3ccccc3c3ccccc3c2o1 showed an inhibition of growth at 10 µM of 14.5%.

These compounds were tested on K562 (assay: Antitumor activity against human K562 cells assessed as cell growth inhibition at 10 uM incubated for 48 hrs by sulforhodamine B assay). Conditions: read-out: GI.
Type: functional
Compound Oc1ccccc1-c1nc2c3ccccc3c3ccccc3c2o1 has an inhibition of growth at 10 µM of 11.9%.

Each compound was assayed on RPMI-8226 (assay: Antitumor activity against human RPMI8226 cells assessed as cell growth inhibition at 10 uM incubated for 48 hrs by sulforhodamine B assay). Conditions: read-out: GI.
Type: functional
Oc1ccccc1-c1nc2c3ccccc3c3ccccc3c2o1 showed an inhibition of growth at 10 µM of 24.5%.

Each compound was assayed on HT-29 (assay: Antitumor activity against human HT-29 cells assessed as cell growth inhibition at 10 uM incubated for 48 hrs by sulforhodamine B assay). Conditions: read-out: GI.
Type: functional
Work on Oc1ccccc1-c1nc2c3ccccc3c3ccccc3c2o1 yielded an inhibition of growth at 10 µM of under 10%.

What follows are compounds tested on UACC-62 (assay: Antitumor activity against human UACC-62 cells assessed as cell growth inhibition at 10 uM incubated for 48 hrs by sulforhodamine B assay). Conditions: read-out: GI.
Type: functional
Oc1ccccc1-c1nc2c3ccccc3c3ccccc3c2o1 showed an inhibition of growth at 10 µM of 11.6%.

Each compound was assayed on 786-0 (assay: Antitumor activity against human 786-0 cells assessed as cell growth inhibition at 10 uM incubated for 48 hrs by sulforhodamine B assay). Conditions: read-out: GI.
Type: functional
For Oc1ccccc1-c1nc2c3ccccc3c3ccccc3c2o1, the inhibition of growth at 10 µM was under 10%.

These compounds were tested on Malme-3M (assay: Antitumor activity against human MALME-3M cells assessed as cell growth inhibition at 10 uM incubated for 48 hrs by sulforhodamine B assay). Conditions: read-out: GI.
Type: functional
Work on Oc1ccccc1-c1nc2c3ccccc3c3ccccc3c2o1 yielded an inhibition of growth at 10 µM of under 10%.

The compounds below were run on HCT-116 (assay: Antitumor activity against human HCT116 cells assessed as cell growth inhibition at 10 uM incubated for 48 hrs by sulforhodamine B assay). Conditions: read-out: GI.
Type: functional
Oc1ccccc1-c1nc2c3ccccc3c3ccccc3c2o1 was tested, and the inhibition of growth at 10 µM was 19.2%.

These compounds were tested on OVCAR-3 (assay: Antitumor activity against human OVCAR-3 cells assessed as cell growth inhibition at 10 uM incubated for 48 hrs by sulforhodamine B assay). Conditions: read-out: GI.
Type: functional
Oc1ccccc1-c1nc2c3ccccc3c3ccccc3c2o1 showed an inhibition of growth at 10 µM of under 10%.

The compounds below were run on MCF7 (assay: Antitumor activity against human MCF7 cells assessed as cell growth inhibition at 10 uM incubated for 48 hrs by sulforhodamine B assay). Conditions: read-out: GI.
Type: functional
In the case of Oc1ccccc1-c1nc2c3ccccc3c3ccccc3c2o1, the inhibition of growth at 10 µM is reported as 37.6%.

The compounds below were run on NCI/ADR-RES (assay: Antitumor activity against human NCI/ADR-RES cells assessed as cell growth inhibition at 10 uM incubated for 48 hrs by sulforhodamine B assay). Conditions: read-out: GI.
Type: functional
With Oc1ccccc1-c1nc2c3ccccc3c3ccccc3c2o1 the inhibition of growth at 10 µM was under 10%.

These compounds were tested on HOP-92 (assay: Antitumor activity against human HOP92 cells assessed as cell growth inhibition at 10 uM incubated for 48 hrs by sulforhodamine B assay). Conditions: read-out: GI.
Type: functional
Oc1ccccc1-c1nc2c3ccccc3c3ccccc3c2o1 was tested, and the inhibition of growth at 10 µM was 16.2%.

The compounds below were run on SF-295 (assay: Antitumor activity against human SF295 cells assessed as cell growth inhibition at 10 uM incubated for 48 hrs by sulforhodamine B assay). Conditions: read-out: GI.
Type: functional
With Oc1ccccc1-c1nc2c3ccccc3c3ccccc3c2o1 the inhibition of growth at 10 µM was under 10%.

Each compound was assayed on SF-268 (assay: Antitumor activity against human SF268 cells assessed as cell growth inhibition at 10 uM incubated for 48 hrs by sulforhodamine B assay). Conditions: read-out: GI.
Type: functional
Oc1ccccc1-c1nc2c3ccccc3c3ccccc3c2o1 showed an inhibition of growth at 10 µM of 10.2%.

These compounds were tested on OVCAR-4 (assay: Antitumor activity against human OVCAR-4 cells assessed as cell growth inhibition at 10 uM incubated for 48 hrs by sulforhodamine B assay). Conditions: read-out: GI.
Type: functional
In the case of Oc1ccccc1-c1nc2c3ccccc3c3ccccc3c2o1, the inhibition of growth at 10 µM is reported as 23.6%.

The compounds below were run on SNB-75 (assay: Antitumor activity against human SNB-75 cells assessed as cell growth inhibition at 10 uM incubated for 48 hrs by sulforhodamine B assay). Conditions: read-out: GI.
Type: functional
Oc1ccccc1-c1nc2c3ccccc3c3ccccc3c2o1 gave an inhibition of growth at 10 µM of 10.3%.

Each compound was assayed on MDA-MB-468 (assay: Antitumor activity against human MDA-MB-468 cells assessed as cell growth inhibition at 10 uM incubated for 48 hrs by sulforhodamine B assay). Conditions: read-out: GI.
Type: functional
Oc1ccccc1-c1nc2c3ccccc3c3ccccc3c2o1 gave an inhibition of growth at 10 µM of 17%.

What follows are compounds tested on EKVX (assay: Antitumor activity against human EKVX cells assessed as cell growth inhibition at 10 uM incubated for 48 hrs by sulforhodamine B assay). Conditions: read-out: GI.
Type: functional
Work on Oc1ccccc1-c1nc2c3ccccc3c3ccccc3c2o1 yielded an inhibition of growth at 10 µM of 21.2%.

What follows are compounds tested on SNB-19 (assay: Antitumor activity against human SNB-19 cells assessed as cell growth inhibition at 10 uM incubated for 48 hrs by sulforhodamine B assay). Conditions: read-out: GI.
Type: functional
Oc1ccccc1-c1nc2c3ccccc3c3ccccc3c2o1 showed an inhibition of growth at 10 µM of under 10%.

These compounds were tested on NCI-H226 (assay: Antitumor activity against human NCI-H226 assessed as cell growth inhibition at 10 uM incubated for 48 hrs by sulforhodamine B assay). Conditions: read-out: GI.
Type: functional
Work on Oc1ccccc1-c1nc2c3ccccc3c3ccccc3c2o1 yielded an inhibition of growth at 10 µM of 14.2%.

What follows are compounds tested on COLO 205 (assay: Antitumor activity against human COLO205 cells assessed as cell growth inhibition at 10 uM incubated for 48 hrs by sulforhodamine B assay). Conditions: read-out: GI.
Type: functional
Oc1ccccc1-c1nc2c3ccccc3c3ccccc3c2o1 gave an inhibition of growth at 10 µM of 14.3%.
